Reference: publication PMC11550483 (2024)

Target: SARS2 M^pro (Severe acute respiratory syndrome coronavirus 2, UniProt P0DTD1, P3395H)
Format: biochemical, SARS-CoV-2

Structure (SMILES)	% inhibition (20 µM) biochemical [%]	M^pro inhibition activity (in words)
CC(C)(C)NC(=O)N[C@H](C(=O)N1C[C@H]2[C@@H]([C@H]1C(=O)NC(CC1CCC1)C(=O)C(N)=O)C2(C)C)C(C)(C)C (some centres unmarked) [Boceprevir, reference compound]	73.0971	
COc1cccc(Nc2ccc3ccccc3c2)c1 [MWAC-0001865, COc1cccc(Nc2ccc3ccccc3c2)c1]	0	
CCOC(=O)C(=O)Nc1sc(C(=O)Nc2cccc(Cl)c2)c(C)c1C(=O)OC [MWAC-0001843, CCOC(=O)C(=O)Nc1sc(C(=O)Nc2cccc(Cl)c2)c(C)c1C(=O)OC]	5.71	
Nc1c(C(=O)c2ccccc2)sc2nc(C3CC3)cc(-c3ccco3)c12 [MWAC-0001875, Nc1c(sc2nc(cc(c3occc3)c12)C4CC4)C(=O)c5ccccc5]	0	
COCCNc1nc2cc(C)ccc2[nH]1 [MWAC-0001822, COCCNc1nc2cc(C)ccc2[nH]1]	3	
CC1=CC(C)(C)N2C(=O)C3(Nc4ccccc4CO3)c3cc(C)cc1c32 (centres unmarked) [MWAC-0001770, CC1=CC(C)(C)N2C(=O)C3(Nc4ccccc4CO3)c5cc(C)cc1c25]	0.845	
CCOC(=O)c1ccc(NC(=O)N2CCc3ccccc32)cc1 [MWAC-0001787, CCOC(=O)c1ccc(NC(=O)N2CCc3ccccc23)cc1]	3.21	
CCN1C(=O)C(O)(CC(=O)c2ccco2)c2cc(Br)ccc21 (centres unmarked) [MWAC-0001784, CCN1C(=O)C(O)(CC(=O)c2occc2)c3cc(Br)ccc13]	3	
CCOc1ccc(C2NC(=O)c3[nH]nc(-c4cccc(OC)c4)c32)cc1 (centres unmarked) [MWAC-0001753, CCOc1ccc(cc1)C2NC(=O)c3[nH]nc(c4cccc(OC)c4)c23]	18	
CCOC(=O)c1c(NC(=O)CCl)sc2c1CC(C)(C)NC2(C)C [MWAC-0001854, CCOC(=O)c1c(NC(=O)CCl)sc2c1CC(C)(C)NC2(C)C]	98	
COc1cc(CSc2nnc[nH]2)c(OC)cc1CSc1nnc[nH]1 [MWAC-0001824, COc1cc(CSc2nnc[nH]2)c(OC)cc1CSc3nnc[nH]3]	0	
Cc1cccc(OCCNC(=O)C(C)Cl)c1 (centres unmarked)		lost all activity
O=C(Nc1cc([N+](=O)[O-])ccc1F)c1cccc(F)c1 [MWAC-0001808, [O-][N+](=O)c1ccc(F)c(NC(=O)c2cccc(F)c2)c1]	1.53	
CCOc1ccc(-c2nc(CSc3nnc(N)[nH]3)cs2)cc1 [MWAC-0001853, CCOc1ccc(cc1)c2nc(CSc3nnc(N)[nH]3)cs2]	1.25	
Cc1ccc(OCCN2C(=O)C(=O)c3ccccc32)cc1 [MWAC-0001827, Cc1ccc(OCCN2C(=O)C(=O)c3ccccc23)cc1]	4.54	
CCN1C(=O)C(=O)c2cc(Cl)ccc21 [MWAC-0001750, CCN1C(=O)C(=O)c2cc(Cl)ccc12]	10	
COc1ccc(OC)c(NC(=O)CSc2nc3cc4c(cc3cc2C#N)OCCO4)c1 [MWAC-0001834, COc1ccc(OC)c(NC(=O)CSc2nc3cc4OCCOc4cc3cc2C#N)c1]	5.66	
Cc1ccc2c(CC(=O)NCc3ccco3)coc2c1C [MWAC-0001762, Cc1ccc2c(CC(=O)NCc3occc3)coc2c1C]	11	
COc1cccc(NC(=O)Cn2c(=O)n(C)c(=O)n(-c3ccc(Oc4ccc(SC(F)(F)F)cc4)c(C)c3)c2=O)c1 [MWAC-0001087, COc1cccc(NC(=O)CN2C(=O)N(C)C(=O)N(C2=O)c3ccc(Oc4ccc(SC(F)(F)F)cc4)c(C)c3)c1]	3	

Structure (SMILES)	% inhibition (20 µM) biochemical [%]	M^pro inhibition activity (in words)
CCOc1cc(S(=O)(=O)N2c3ccccc3CC2C)ccc1Cl (centres unmarked) [MWAC-0001761, CCOc1cc(ccc1Cl)S(=O)(=O)N2C(C)Cc3ccccc23]	8	
Fc1nc(F)c(F)c(SC(=S)N2CCOCC2)c1F [MWAC-0001725, Fc1nc(F)c(F)c(SC(=S)N2CCOCC2)c1F]	3.69	
O=C1C(=O)N(Cc2ccc([N+](=O)[O-])cc2)c2ccc(Br)cc21 [MWAC-0001727, [O-][N+](=O)c1ccc(CN2C(=O)C(=O)c3cc(Br)ccc23)cc1]	65	
COC(=O)CSC1=C(C#N)C(c2ccccc2OC)CC(=O)N1 (centres unmarked) [MWAC-0001735, COC(=O)CSC1=C(C#N)C(CC(=O)N1)c2ccccc2OC]	4.32	
O=C1/C(=C/c2ccc3c(c2)OCO3)SC(=S)N1Cc1cccnc1 [MWAC-0001792, O=C1N(Cc2cccnc2)C(=S)S/C/1=C\c3ccc4OCOc4c3]	14	
C=CCN1C(=O)C(O)(CC(=O)c2cccc(OC)c2)c2cc(Br)ccc21 (centres unmarked) [MWAC-0001778, COc1cccc(c1)C(=O)CC2(O)C(=O)N(CC=C)c3ccc(Br)cc23]	2.82	
Cc1ccc(COc2ccc([N+](=O)[O-])cc2C=O)cc1 [MWAC-0001790, Cc1ccc(COc2ccc(cc2C=O)[N+](=O)[O-])cc1]	7	
COc1cccc(C(=O)NN2C(=S)N(c3ccccc3)C(=O)C2CC(N)=O)c1 (centres unmarked) [MWAC-0001743, COc1cccc(c1)C(=O)NN2C(CC(=O)N)C(=O)N(C2=S)c3ccccc3]	6	
Cc1cccc2c1NC(=O)/C2=C\C(=O)c1cccs1 [MWAC-0001756, Cc1cccc2\C(=C\C(=O)c3cccs3)\C(=O)Nc12]	13	
O=C(CCl)NC(NC(=O)CCl)c1ccccc1F [MWAC-0001862, Fc1ccccc1C(NC(=O)CCl)NC(=O)CCl]	40	
CCOC(=O)N1CCN(c2nncc(-c3ccc4ccccc4c3)n2)CC1 [MWAC-0001757, CCOC(=O)N1CCN(CC1)c2nncc(n2)c3ccc4ccccc4c3]	38	
Cc1cccc(/N=C2/NC(=O)/C(=C\c3ccc(N(C)C)cc3)S2)c1 [MWAC-0001734, CN(C)c1ccc(\C=C/2\S\C(=N/c3cccc(C)c3)\NC2=O)cc1]	9	
Cc1nn(CC(=O)NCc2ccc3c(c2)OCO3)c(=O)c2c1cnn2C(C)(C)C [MWAC-0000539, CC1=NN(CC(=O)NCc2ccc3OCOc3c2)C(=O)c4c1cnn4C(C)(C)C]	19	
Cc1cc(C)c2oc(-c3ccc(C)c(N)c3)nc2c1 [MWAC-0001715, Cc1cc(C)c2oc(nc2c1)c3ccc(C)c(N)c3]	0	
O=C(COc1ccccc1)Nc1scc(-c2ccccc2)c1C(=O)NCc1ccco1 [MWAC-0001777, O=C(COc1ccccc1)Nc2scc(c3ccccc3)c2C(=O)NCc4occc4]	3.67	
COc1ccc2ccccc2c1/C=C1/S/C(=N/c2ccccc2Cl)NC1=O [MWAC-0001721, COc1ccc2ccccc2c1\C=C/3\S\C(=N\c4ccccc4Cl)\NC3=O]	6	
O=[N+]([O-])c1cc(C(F)(F)F)ccc1NCCNS(=O)(=O)Cc1ccccc1 [MWAC-0001800, [O-][N+](=O)c1cc(ccc1NCCNS(=O)(=O)Cc2ccccc2)C(F)(F)F]	3.51	
Cc1cc(Br)cc2c1N(C)C(=O)C2(O)CC(=O)c1ccc(Cl)cc1 (centres unmarked) [MWAC-0001785, CN1C(=O)C(O)(CC(=O)c2ccc(Cl)cc2)c3cc(Br)cc(C)c13]	4.25	
CN(C)c1ccc(/C=N\Nc2cn[nH]c(=O)c2Cl)cc1 [MWAC-0001746, CN(C)c1ccc(\C=N/NC2=C(Cl)C(=O)NN=C2)cc1]	15	

Structure (SMILES)	% inhibition (20 µM) biochemical [%]	M^pro inhibition activity (in words)
O=C(Nc1ccc(Cl)cc1)N1CCc2ccccc21 [MWAC-0001717, Clc1ccc(NC(=O)N2CCc3ccccc23)cc1]	6	
CCCOc1ccc(CN2C(=O)C(=O)c3ccccc32)cc1 [MWAC-0001830, CCCOc1ccc(CN2C(=O)C(=O)c3ccccc23)cc1]	5	
Cc1cc(C(=O)CCl)c(C)n1Cc1ccco1 [MWAC-0001817, Cc1cc(C(=O)CCl)c(C)n1Cc2occc2]	62	
CCCN1C(=O)C(O)(CC(=O)c2cc(OC)ccc2OC)c2cc(Br)ccc21 (centres unmarked) [MWAC-0001752, CCCN1C(=O)C(O)(CC(=O)c2cc(OC)ccc2OC)c3cc(Br)ccc13]	33	
Cc1cc(I)cnc1NC(=S)NC(=O)c1ccco1 [MWAC-0001789, Cc1cc(I)cnc1NC(=S)NC(=O)c2occc2]	2.41	
O=C(CCl)NCCOc1ccccc1 [MWAC-0001864, ClCC(=O)NCCOc1ccccc1]	58	
O=C1NC(=O)C(=Cc2cc(O)ccc2Br)C(=O)N1 [MWAC-0001754, Oc1ccc(Br)c(C=C2C(=O)NC(=O)NC2=O)c1]	21	
COc1ccc(C2=NN3C(C2)c2ccccc2OC3C(C)C)cc1 (centres unmarked) [MWAC-0001724, COc1ccc(cc1)C2=NN3C(Oc4ccccc4C3C2)C(C)C]	7	
O=C(CC(SCc1ccco1)c1ccc(Cl)cc1)c1cccs1 (centres unmarked) [MWAC-0001874, Clc1ccc(cc1)C(CC(=O)c2cccs2)SCc3occc3]	0	
Cc1c(C(=O)N2CCCCC2C)sc2nc(-c3ccc(F)cc3)cn12 (centres unmarked) [MWAC-0001747, CC1CCCCN1C(=O)c2sc3nc(cn3c2C)c4ccc(F)cc4]	5.44	
CSc1cccc(NC(=O)c2cnn3ccccc23)c1 [MWAC-0001883, CSc1cccc(NC(=O)c2cnn3ccccc23)c1]	0	
O=Cc1ccccc1OCc1ccc2c(c1)OCO2 [MWAC-0001842, O=Cc1ccccc1OCc2ccc3OCOc3c2]	11	
N#C/C(=C\c1c[nH]c2ccccc12)C(=O)NC1CC1 [MWAC-0001828, O=C(NC1CC1)\C(=C\c2c[nH]c3ccccc23)\C#N]	11	
CCOc1ccccc1OCCCOc1ccccc1C=O [MWAC-0001794, CCOc1ccccc1OCCCOc2ccccc2C=O]	2.44	
CCOc1ccccc1C1CC(c2ccccc2)Nc2ncnn21 (centres unmarked) [MWAC-0001745, CCOc1ccccc1C2CC(Nc3ncnn23)c4ccccc4]	5.37	
Cc1ccccc1OCCOc1ccccc1/C=N/n1cnnc1 [MWAC-0001810, Cc1ccccc1OCCOc2ccccc2\C=N\n3cnnc3]	5	
COc1cc(C#N)ccc1OCc1ccc(Cl)cc1 [MWAC-0001772, COc1cc(ccc1OCc2ccc(Cl)cc2)C#N]	0.301	
CC(=O)C1=C(O)C(=O)N(c2ccc(Br)cn2)C1c1ccc(Cl)cc1 (centres unmarked) [MWAC-0001809, CC(=O)C1=C(O)C(=O)N(C1c2ccc(Cl)cc2)c3ccc(Br)cn3]	16	
